Experimental data reported in BindingDB's records for patent WO2025049746 (Eikon Therapeutics, 2025).

Experiments:
[1] = target: Bifunctional 3'-5' exonuclease/ATP-dependent helicase WRN (Homo sapiens, UniProt Q14191); test: ADP-Glo Kinase Assay
Description: ATPase activity was measured using the ADP-Glo Kinase Assay following the manufacturers recommended protocol.

[2] = target: T1, Bifunctional 3'-5' exonuclease/ATP-dependent helicase WRN [480-1251] (UniProt Q14191); test: Biochemical Activity Assays
T1 construct: 480-1251
T1 sequence (Q14191 480-1251): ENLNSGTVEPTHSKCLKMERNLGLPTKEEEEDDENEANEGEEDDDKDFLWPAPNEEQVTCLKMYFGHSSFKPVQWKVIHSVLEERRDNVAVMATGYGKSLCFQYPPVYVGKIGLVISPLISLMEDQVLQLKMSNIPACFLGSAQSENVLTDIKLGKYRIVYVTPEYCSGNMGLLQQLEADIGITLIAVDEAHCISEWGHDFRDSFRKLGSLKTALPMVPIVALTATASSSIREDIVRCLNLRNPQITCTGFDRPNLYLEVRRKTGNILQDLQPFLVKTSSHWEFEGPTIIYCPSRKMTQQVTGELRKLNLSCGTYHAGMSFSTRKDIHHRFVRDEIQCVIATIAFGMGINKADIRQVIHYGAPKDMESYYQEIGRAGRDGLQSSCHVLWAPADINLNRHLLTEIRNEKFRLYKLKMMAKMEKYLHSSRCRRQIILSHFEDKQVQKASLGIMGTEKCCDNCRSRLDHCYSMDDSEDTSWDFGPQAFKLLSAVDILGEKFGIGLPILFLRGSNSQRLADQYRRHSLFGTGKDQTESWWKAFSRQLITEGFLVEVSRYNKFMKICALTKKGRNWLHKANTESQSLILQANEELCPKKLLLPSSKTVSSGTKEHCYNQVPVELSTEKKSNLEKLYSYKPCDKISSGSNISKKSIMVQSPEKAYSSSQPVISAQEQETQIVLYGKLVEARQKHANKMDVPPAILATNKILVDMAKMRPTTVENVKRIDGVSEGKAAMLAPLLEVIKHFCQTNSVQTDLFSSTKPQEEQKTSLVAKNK

Bifunctional 3'-5' exonuclease/ATP-dependent helicase WRN, sequence (Q14191 whole entry): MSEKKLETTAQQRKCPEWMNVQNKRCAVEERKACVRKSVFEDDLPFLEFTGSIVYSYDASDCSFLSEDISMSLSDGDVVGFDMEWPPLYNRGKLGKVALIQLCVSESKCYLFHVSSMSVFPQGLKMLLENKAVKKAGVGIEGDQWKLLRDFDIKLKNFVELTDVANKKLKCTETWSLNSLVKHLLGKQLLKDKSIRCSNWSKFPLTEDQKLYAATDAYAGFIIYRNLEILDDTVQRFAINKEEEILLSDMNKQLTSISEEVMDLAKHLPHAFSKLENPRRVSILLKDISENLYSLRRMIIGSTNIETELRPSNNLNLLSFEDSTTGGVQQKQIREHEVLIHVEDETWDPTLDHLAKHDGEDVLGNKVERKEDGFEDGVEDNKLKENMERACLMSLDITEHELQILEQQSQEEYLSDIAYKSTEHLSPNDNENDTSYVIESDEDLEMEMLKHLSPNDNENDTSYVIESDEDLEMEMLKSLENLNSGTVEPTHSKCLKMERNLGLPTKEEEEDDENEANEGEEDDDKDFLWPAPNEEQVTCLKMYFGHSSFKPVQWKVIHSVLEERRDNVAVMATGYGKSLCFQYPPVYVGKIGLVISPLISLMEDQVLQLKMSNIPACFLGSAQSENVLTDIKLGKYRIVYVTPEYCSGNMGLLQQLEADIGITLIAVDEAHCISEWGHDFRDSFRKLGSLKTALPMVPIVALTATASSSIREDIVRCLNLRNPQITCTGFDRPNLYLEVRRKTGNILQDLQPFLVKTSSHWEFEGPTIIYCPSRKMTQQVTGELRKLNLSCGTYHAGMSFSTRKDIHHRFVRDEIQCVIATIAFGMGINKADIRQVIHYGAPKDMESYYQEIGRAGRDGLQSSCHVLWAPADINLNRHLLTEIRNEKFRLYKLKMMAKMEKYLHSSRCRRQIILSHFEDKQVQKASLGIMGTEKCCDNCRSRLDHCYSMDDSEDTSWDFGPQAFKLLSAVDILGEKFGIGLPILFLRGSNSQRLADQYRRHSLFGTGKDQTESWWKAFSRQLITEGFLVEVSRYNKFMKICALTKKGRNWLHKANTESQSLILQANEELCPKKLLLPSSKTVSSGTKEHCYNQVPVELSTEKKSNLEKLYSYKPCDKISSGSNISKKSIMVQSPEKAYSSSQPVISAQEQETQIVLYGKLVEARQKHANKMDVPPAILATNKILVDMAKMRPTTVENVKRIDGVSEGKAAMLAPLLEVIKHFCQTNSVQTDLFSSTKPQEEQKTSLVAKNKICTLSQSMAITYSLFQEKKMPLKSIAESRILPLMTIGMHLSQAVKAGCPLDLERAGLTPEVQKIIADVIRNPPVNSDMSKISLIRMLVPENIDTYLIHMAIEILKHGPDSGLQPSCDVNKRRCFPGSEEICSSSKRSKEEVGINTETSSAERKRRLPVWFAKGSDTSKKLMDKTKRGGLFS

| Compound | IC50 [1] | IC50 [2] |
| --- | --- | --- |
| CCc1c(N2CCN(C(=O)c3ncnc(C)c3O)CC2)c(=O)n2nc(-c3ccc4c(c3)CCN(C)C4)nc2n1CC(=O)Nc1ccc(C(F)(F)F)cc1Cl [WO2025049746, Example 294] | 44 nM | 48 nM |
| CCc1c(N2CCN(C(=O)c3ncnc(C)c3O)CC2)c(=O)n2nc(-c3ccc4nn(C)cc4c3C)nc2n1CC(=O)Nc1ccc(C(F)(F)F)cc1Cl [WO2025049746, Example 295] | 34 nM | 35 nM |
| CCc1c(N2CCN(C(=O)c3ncnc(C)c3O)CC2)c(=O)n2nc(-c3ccc4c(c3)CC(C)(C)N4C(C)=O)nc2n1CC(=O)Nc1ccc(C(F)(F)F)cc1Cl [WO2025049746, Example 296] | 36 nM | 38 nM |
| CCc1c(N2CCN(C(=O)c3ncnc(C)c3O)CC2)c(=O)n2nc(-c3cc(F)c4nc(C)oc4c3)nc2n1CC(=O)Nc1ccc(C(F)(F)F)cc1Cl [WO2025049746, Example 297] | 31 nM | 32 nM |
| CCc1c(N2CCN(C(=O)c3ncnc(C)c3O)CC2)c(=O)n2nc(-c3ccc4nn(C)c(C)c4c3)nc2n1CC(=O)Nc1ccc(C(F)(F)F)cc1Cl [WO2025049746, Example 298] | 31 nM | 29 nM |
| CCc1c(N2CCN(C(=O)c3ncnc(C)c3O)CC2)c(=O)n2nc(-c3cc(C)c4nn(C)cc4c3)nc2n1CC(=O)Nc1ccc(C(F)(F)F)cc1Cl [WO2025049746, Example 299] | 29 nM | 31 nM |
| CCc1c(N2CCN(C(=O)c3ncnc(C)c3O)CC2)c(=O)n2nc(-c3cnc4cn(C)nc4c3)nc2n1CC(=O)Nc1ccc(C(F)(F)F)cc1Cl [WO2025049746, Example 300] | 68 nM | 57 nM |
| CCc1c(N2CCN(C(=O)c3ncnc(C)c3O)CC2)c(=O)n2nc(-c3ccc4nn(C)nc4c3)nc2n1CC(=O)Nc1ccc(C(F)(F)F)cc1Cl [WO2025049746, Example 301] | 33 nM | 35 nM |
| CCCn1cc2cc(-c3nc4n(CC(=O)Nc5ccc(C(F)(F)F)cc5Cl)c(CC)c(N5CCN(C(=O)c6ncnc(C)c6O)CC5)c(=O)n4n3)ccc2n1 [WO2025049746, Example 302] | 29 nM | 35 nM |
| CCc1c(N2CCN(C(=O)c3ncnc(C)c3O)CC2)c(=O)n2nc(-c3ccc4nc(NCC(F)F)oc4c3)nc2n1CC(=O)Nc1ccc(C(F)(F)F)cc1Cl [WO2025049746, Example 303] | 42 nM | 45 nM |
| CCc1c(N2CCN(C(=O)c3ncnc(C)c3O)CC2)c(=O)n2nc(-c3cnc4ccn(C)c4c3)nc2n1CC(=O)Nc1ccc(C(F)(F)F)cc1Cl [WO2025049746, Example 304] | 32 nM | 29 nM |
| CCc1c(N2CCN(C(=O)c3ncnc(C)c3O)CC2)c(=O)n2nc(-c3cnc4nccn4c3)nc2n1CC(=O)Nc1ccc(C(F)(F)F)cc1Cl [WO2025049746, Example 305] | 48 nM | 48 nM |
| CCc1c(N2CCN(C(=O)c3ncnc(C)c3O)CC2)c(=O)n2nc(-c3cc4c(cnn4C)cc3C)nc2n1CC(=O)Nc1ccc(C(F)(F)F)cc1Cl [WO2025049746, Example 306] | 29700 nM | 29700 nM |
| CCc1c(N2CCN(C(=O)c3ncnc(C)c3O)CC2)c(=O)n2nc(-c3ccc4nc(NC)oc4c3)nc2n1CC(=O)Nc1ccc(C(F)(F)F)cc1Cl [WO2025049746, Example 307] | 32 nM | 32 nM |
| CCc1c(N2CCN(C(=O)c3ncnc(C)c3O)CC2)c(=O)n2nc(-c3ccc4c(c3)CN(C)CC4)nc2n1CC(=O)Nc1ccc(C(F)(F)F)cc1Cl [WO2025049746, Example 308] | 47 nM | 49 nM |
| CCc1c(N2CCN(C(=O)c3ncnc(C)c3O)CC2)c(=O)n2nc(-c3ccc4c(c3)NC(=O)C4)nc2n1CC(=O)Nc1ccc(C(F)(F)F)cc1Cl [WO2025049746, Example 309] | 32 nM | 31 nM |
| CCc1c(N2CCN(C(=O)c3ncnc(C)c3O)CC2)c(=O)n2nc(-c3cnc4sccc4c3)nc2n1CC(=O)Nc1ccc(C(F)(F)F)cc1Cl [WO2025049746, Example 310] | 26 nM | 27 nM |
| CCc1c(N2CCN(C(=O)c3ncnc(C)c3O)CC2)c(=O)n2nc(-c3cc4cnn(C)c4cc3C)nc2n1CC(=O)Nc1ccc(C(F)(F)F)cc1Cl [WO2025049746, Example 311] | 50 nM | 47 nM |
| CCc1c(N2CCN(C(=O)c3ncnc(C)c3O)CC2)c(=O)n2nc(-c3ccc4c(c3)c(C)nn4C)nc2n1CC(=O)Nc1ccc(C(F)(F)F)cc1Cl [WO2025049746, Example 312] | 35 nM | 37 nM |
| CCc1c(N2CCN(C(=O)c3ncnc(C)c3O)CC2)c(=O)n2nc(-c3cnc4nn(C)cc4c3)nc2n1CC(=O)Nc1ccc(C(F)(F)F)cc1Cl [WO2025049746, Example 313] | 35 nM | 38 nM |
| CCc1c(N2CCN(C(=O)c3ncnc(C)c3O)CC2)c(=O)n2nc(-c3ccc4c(c3)nnn4C)nc2n1CC(=O)Nc1ccc(C(F)(F)F)cc1Cl [WO2025049746, Example 314] | 32 nM | 33 nM |

| Compound | IC50 [1] | IC50 [2] |
| --- | --- | --- |
| CCc1c(N2CCN(C(=O)c3ncnc(C)c3O)CC2)c(=O)n2nc(-c3ccc4nc(N5CCOCC5)oc4c3)nc2n1CC(=O)Nc1ccc(C(F)(F)F)cc1Cl [WO2025049746, Example 315] | 34 nM | 33 nM |
| CCc1c(N2CCN(C(=O)c3ncnc(C)c3O)CC2)c(=O)n2nc(-c3ccc4c(c3)CC(C)(C)N4C)nc2n1CC(=O)Nc1ccc(C(F)(F)F)cc1Cl [WO2025049746, Example 316] | 57 nM | 68 nM |
| CCc1c(N2CCN(C(=O)c3ncnc(C)c3O)CC2)c(=O)n2nc(-c3cc(OC(F)F)n4nccc4c3F)nc2n1CC(=O)Nc1ccc(C(F)(F)F)cc1Cl [WO2025049746, Example 317] | 75 nM | 93 nM |
| CCc1c(N2CCN(C(=O)c3ncnc(C)c3O)CC2)c(=O)n2nc(-c3ccc4[nH]c(=O)ccc4c3)nc2n1CC(=O)Nc1ccc(C(F)(F)F)cc1Cl [WO2025049746, Example 318] | 23 nM | 24 nM |
| CCc1c(N2CCN(C(=O)c3ncnc(C)c3O)CC2)c(=O)n2nc(-c3ccc4nn(CC)cc4c3)nc2n1CC(=O)Nc1ccc(C(F)(F)F)cc1Cl [WO2025049746, Example 319] | 25 nM | 30 nM |
| CCc1c(N2CCN(C(=O)c3ncnc(C)c3O)CC2)c(=O)n2nc(-c3cc(F)c4ncccc4c3F)nc2n1CC(=O)Nc1ccc(C(F)(F)F)cc1Cl [WO2025049746, Example 320] | 19 nM | 22 nM |
| CCc1c(N2CCN(C(=O)c3ncnc(C)c3O)CC2)c(=O)n2nc(-c3ccc4c(cnn4C)c3)nc2n1CC(=O)Nc1ccc(C(F)(F)F)cc1Cl [WO2025049746, Example 321] | 20 nM | 23 nM |
| CCc1c(N2CCN(C(=O)c3ncnc(C)c3O)CC2)c(=O)n2nc(-c3cc(C(F)(F)F)c4ncccc4c3)nc2n1CC(=O)Nc1ccc(C(F)(F)F)cc1Cl [WO2025049746, Example 322] | 72 nM | 96 nM |
| CCc1c(N2CCN(C(=O)c3ncnc(C)c3O)CC2)c(=O)n2nc(-c3ccc4nc(C)ccc4c3)nc2n1CC(=O)Nc1ccc(C(F)(F)F)cc1Cl [WO2025049746, Example 323] | 26 nM | 28 nM |
| CCc1c(N2CCN(C(=O)c3ncnc(C)c3O)CC2)c(=O)n2nc(-c3ccc4c(c3)CCC(=O)N4C)nc2n1CC(=O)Nc1ccc(C(F)(F)F)cc1Cl [WO2025049746, Example 324] | 25 nM | 32 nM |
| CCc1c(N2CCN(C(=O)c3ncnc(C)c3O)CC2)c(=O)n2nc(-c3ccc4c(c3)CC(=O)N4)nc2n1CC(=O)Nc1ccc(C(F)(F)F)cc1Cl [WO2025049746, Example 325] | 25 nM | 34 nM |
| CCc1c(N2CCN(C(=O)c3ncnc(C)c3O)CC2)c(=O)n2nc(-c3ccn4ncc(F)c4c3)nc2n1CC(=O)Nc1ccc(C(F)(F)F)cc1Cl [WO2025049746, Example 326] | 24 nM | 26 nM |
| CCc1c(N2CCN(C(=O)c3ncnc(C)c3O)CC2)c(=O)n2nc(-c3coc4ccccc34)nc2n1CC(=O)Nc1ccc(C(F)(F)F)cc1Cl [WO2025049746, Example 327] | 30 nM | 56 nM |
| CCc1c(N2CCN(C(=O)c3ncnc(C)c3O)CC2)c(=O)n2nc(-c3cnc4[nH]cc(Cl)c4c3)nc2n1CC(=O)Nc1ccc(C(F)(F)F)cc1Cl [WO2025049746, Example 328] | 42 nM | 53 nM |
| CCc1c(N2CCN(C(=O)c3ncnc(C)c3O)CC2)c(=O)n2nc(-c3ccc(NS(N)(=O)=O)cc3)nc2n1CC(=O)Nc1ccc(C(F)(F)F)cc1Cl [WO2025049746, Example 329] | 21 nM | 25 nM |
| CCc1c(N2CCN(C(=O)c3ncnc(C)c3O)CC2)c(=O)n2nc(-c3ccc(OCC(=O)O)cc3)nc2n1CC(=O)Nc1ccc(C(F)(F)F)cc1Cl [WO2025049746, Example 330] | 25 nM | 33 nM |
| CCc1c(N2CCN(C(=O)c3ncnc(C)c3O)CC2)c(=O)n2nc(-c3ccc(NC(=O)NC)cc3)nc2n1CC(=O)Nc1ccc(C(F)(F)F)cc1Cl [WO2025049746, Example 331] | 20 nM | 26 nM |
| CCc1c(N2CCN(C(=O)c3ncnc(C)c3O)CC2)c(=O)n2nc(-c3ccc4nn(C5COC5)cc4c3)nc2n1CC(=O)Nc1ccc(C(F)(F)F)cc1Cl [WO2025049746, Example 332] | 44 nM | 45 nM |
| CCc1c(N2CCN(C(=O)c3ncnc(C)c3O)CC2)c(=O)n2nc(-c3ccc([S+](C)[O-])cc3)nc2n1CC(=O)Nc1ccc(C(F)(F)F)cc1Cl (centres undefined) [WO2025049746, Example 333] | 28 nM | 28 nM |
| CCc1c(N2CCN(C(=O)c3ncnc(C)c3O)CC2)c(=O)n2nc(-c3ccn4nc(OC(F)F)cc4c3F)nc2n1CC(=O)Nc1ccc(C(F)(F)F)cc1Cl [WO2025049746, Example 334] | 30 nM | 32 nM |
| CCc1c(N2CCN(C(=O)c3ncnc(C)c3O)CC2)c(=O)n2nc(-c3ccn4c(cc(=O)n4C(F)F)c3F)nc2n1CC(=O)Nc1ccc(C(F)(F)F)cc1Cl [WO2025049746, Example 335] | 64 nM | 58 nM |
